The results in this text go back to patent US12171787B2, “Methods and compositions for modulating angiogenesis and vasculogenesis” (SanBio, Inc., priority 2012, dated 2024).

The test system of one assay is HUVECs. Kind of assay: HUVEC tube formation assay. Format: cell-based, human. An excerpt:
A HUVEC tube formation assay was used to test the ability of MSCs and SB623 cells to elaborate factors that stimulate vessel formation. See, for example, E J Smith & C A Staton, “Tubule formation assays,” in Angiogenesis Assays—A Critical Appraisal of Current Techniques, (Staton, Lewis & Bicknell, eds.). John Wiley & Sons, Ltd., West Sussex, UK, pp. 65-87, 2006; and Goodwin (2007) Microvasc. Res. 74:172-183.
HUVECs were passed five times in EBM-2/ECGS medium, then transferred to alpha-MEM/0.5% FBS/2 mM glutamine/pen-strep, at a density of 1×10^5 cells/ml. After 24 hours, HUVECs were harvested using 0.25% trypsin-EDTA, rinsed, and resuspended in α-MEM/2 mM glutamine/pen-strep at a density of 1×10^5 cells/ml. A mixture of 75 ul of HUVECs plus 75 ul of either MSC- or SB623-conditioned medium (Example 1), or 75 ul OptiMEM medium as a negative control, was added to each well of a 96-well plate that had been pre-treated by adding 50 ul of Reduced Growth Factor (RGF)-basement gel (Invitrogen, Carslsbad, CA) per well and incubating the plates at 37° C. for 45 minutes. For this assay, MSCs were obtained from 3 different human donors, and a portion of the MSCs from each donor were converted to SB623 cells.
After 16 hours, the cultures were examined by phase contrast microscopy and photographed. The number of complete tubes (formed by contiguous cells) was quantified by an experimenter blinded to the group. […] Thus, MSCs and SB623 cells secrete factors that promote vasculogenesis.
HUVEC tube formation assays with conditioned medium from MSCs and SB623 cells were conducted as described in Example 4, in the presence and absence of the VEGF2 receptor inhibitor SU5416.
Quantitation of tube formation was conducted, as described in Example 4, for HUVECs exposed to SB623 cell conditioned medium in the presence and absence of SU5416, at 16 and 40 hours after plating.

In the next assay the test system is aortic rings. Kind of assay: Aortic ring assay (vessel outgrowth and branching). The class given is cell-based, Sprague-Dawley rats. To be noted: 50 nM SU5416, rat aortic rings, 10 days. An excerpt:
Restoration of vasculature after ischemic injury requires that surviving endothelial cells receive signals that prompt their migration and invasion. Such signals may arise from vascular smooth muscle cells, monocytes, and/or macrophages, among others. To test for secretion of factors involved in vessel sprouting and branching, the aortic ring assay was used. See, for example, Nicosia & Ottinetti (1990) Lab. Invest. 63:115-122 and Nicosia (2009) J. Cell. Mol. Med. 13:4113-4136.
For preparation of aortic rings, adult Sprague-Dawley rats were euthanized prior to dissection. After clamping off its two ends, the aorta was removed and placed in ice-cold α-MEM/pen-strep medium prior to removal of the external adipose layer. Adipose-free aorta was rinsed twice with ice-cold EBM-2/pen-strep medium before being sectioned into rings of 1.0 mm thickness. […]
To assess the angiogenic activity of MSC- and SB623-derived factors, phase contrast photographs were taken on Day 10, and results were quantified by an experimenter blinded to the group, by counting vessel outgrowth and branching. Growth of new vessels was quantitated by measuring the number of vessels growing out from the ring; and vessel branching was quantitated by measuring the number of branchpoints present in vessels growing out from the aortic ring. […]

Assay [1] has as its system human umbilical vein endothelial cells (HUVECs). Kind of assay: HUVEC proliferation: fraction of Ki67-expressing cells by flow cytometry. To be noted: 50 nM SU5416 + SB623 cell conditioned medium, five days. Format: cell-based. On the procedure:
Ki67 is a protein present in cells exiting from the GO (quiescent) phase of the cell cycle; therefore Ki67 levels can be used as a measure of cell proliferation. The fraction of cells expressing Ki67 protein was measured in HUVECs that had been starved for serum and growth factors, then cultured with conditioned medium from either MSCs or SB623 cells.
For Ki67 measurement, HUVECs were cultured and exposed to CM as described in Example 2. Cells were fixed in 4% paraformaldehyde and permeabilized with 0.1% Triton-X100 for one hour. Following permeabilization, cells were stained for one hour on ice with fluorescein-conjugated anti-KI67 antibody, then samples were washed, acquired, and analyzed on the FL-1 channel of a BD FACSCalibur. Cells exposed to fluorescein-conjugated IgG were used as a negative control. For these assays, 3 different human donor pairs were tested.
The effect of the VEGF receptor inhibitor on stimulation of HUVEC proliferation by SB623 cell factors was also assessed. Assays for expression of Ki67 were conducted as described in Example 3, except that 50 nM SU5416 was added to cultures 30 minutes before addition of conditioned medium, and cells were cultured for five days, instead of seven, before assay.
For orientation: Flow cytometry measures light scatter and fluorescence of single cells or particles in a stream.

For assay [2] the test system is unchanged. Kind of assay: HUVEC survival: fraction of Bcl-2-expressing cells by flow cytometry. Format: cell-based. To be noted: 50 nM SU5416 + SB623 cell-conditioned medium, five days, vs SB623 CM alone. On the procedure: (§1) Cerebral ischemia can result in loss of nutrient supply to the affected area. To determine if soluble factors from SB623 cells and MSCs have restorative effects on nutrient-deprived endothelial cells, human umbilical vein endothelial cells (HUVECs) were cultured in medium depleted of serum and growth factors for 24 hours, then exposed to conditioned medium (CM) from MSCs or SB623 cells. Control cultures remained in serum- and growth factor-depleted medium without addition of CM. Viability and proliferative capacity of the HUVECs were then assessed.
For these experiments, human umbilical vein endothelial cells were passed twice, then 7.5×10^5 cells were plated in EBM-2/ECGS medium (Endothelial Basal Medium-2/Endothelial Cell Growth Supplements; Lonza, Walkersville, MD) on T-75 flasks coated with 0.1% gelatin and cultured for 24 hours. […] Effects of CM were then assessed by withdrawing 6 ml of medium from each flask, and replacing it with 6 ml fresh OptiMEM (control), 6 ml MSC conditioned medium, or 6 ml SB623 cell conditioned medium (conditioned media prepared as described in Example 1). […]
Bcl-2 is an anti-apoptotic protein originally identified as being overexpressed in certain B-cell lymphomas. Accordingly, the fraction of cells expressing the Bcl-2 protein was measured in serum/growth factor-starved HUVECs as an indicator of their apoptotic potential. […]

Assay [3] has the same test system. Kind of assay: HUVEC survival: propidium iodide staining of serum/growth factor-starved HUVECs. The class given is cell-based. To be noted: 50 nM SU5416 + SB623 cell-conditioned medium, five days, vs SB623 CM alone. The procedure:
as §1
For these experiments, human umbilical vein endothelial cells were passed twice, then 7.5×10^5 cells were plated in EBM-2/ECGS medium (Endothelial Basal Medium-2/Endothelial Cell Growth Supplements; Lonza, Walkersville, MD) on T-75 flasks coated with 0.1% gelatin and cultured for 24 hours. The HUVEC monolayers were rinsed twice with warm PBS and incubated with 12 ml of fresh EBM-2 medium overnight at 37° C., 5% CO2. Effects of CM were then assessed by withdrawing 6 ml of medium from each flask, and replacing it with 6 ml fresh OptiMEM (control), 6 ml MSC conditioned medium, or 6 ml SB623 cell conditioned medium (conditioned media prepared as described in Example 1). […]
To quantify cell death, cells were stained with propidium iodide (PI), since dead cells are permeable to PI. […]

Take `Cc1cc(C)c(/C=C2\C(=O)Nc3ccccc32)[nH]1` [SU5416]: in the assay on HUVECs (50 nM SU5416, 16 and 40 hours after plating), the “effect on positive effect of SB623 CM on tube formation (quantitation)” value is given as “completely reversed”. In addition, the “effect on stimulation of tube formation by VEGF, MSC-CM and SB623-CM” value with HUVECs (50 nM SU5416, 16 hours) is given as “reduces the stimulation of tube formation”. The “vessel outgrowth and branching in SB623 cell-conditioned medium plus inhibitor” value in the assay with aortic rings is listed as “reduced”. The “effect on enhancement of HUVEC proliferation (Ki67) by SB623 conditioned medium” value in assay [1] is recorded as “partially reversed”. Moreover, the “Bcl-2 expression by HUVECs in SB623 conditioned medium plus inhibitor” value in assay [2] is reported as “fewer cells express”. Besides, the “propidium iodide uptake by HUVECs in SB623 conditioned medium plus inhibitor” value in assay [3] is on record as “more cells take up PI”.

Consider VEGF, for which, in the assay on HUVECs (10 ng/ml VEGF, 16 hours), the “tube formation by HUVECs (positive control)” value is on record as “promote tube formation”.
